Entries after “also recorded” stand apart in the source; their conditions may differ.
What was measured:
[1] = test system: cells with inhibited complex I; test: Screening assay (1): enhancement of mitochondrial energy producing function in cells with inhibited respiratory complex I (high-resolution respirometry); format: cell-based, human; parameters: key: graded either +, ++ or +++ in increasing order of potency; graded either +, ++ or +++ in increasing order of potency; graded either +, ++ or +++ in increasing order of potency; (+): Brackets [( )] indicate an intermediate effect; (++): Brackets [( )] indicate an intermediate effect; (+++) is between ++ and +++; settings: increase in mitochondrial oxygen consumption in cells with inhibited complex I
Procedure: (§1) Measurement of mitochondrial respiration is performed in a high-resolution oxygraph (Oxygraph-2k, Oroboros Instruments, Innsbruck, Austria) at a constant temperature of 37° C. Isolated human platelets, white blood cells, fibroblasts, human heart muscle fibers or other cell types containing live mitochondria are suspended in a 2 mL glass chamber at a concentration sufficient to yield oxygen consumption in the medium of ≥10 pmol O2 s^−1 mL^−1.
(1) Assay for Enhancement of Mitochondrial Energy Producing Function in Cells with Inhibited Respiratory Complex I
Cells are placed in a buffer containing 110 mM sucrose, HEPES 20 mM, taurine 20 mM, K-lactobionate 60 mM, MgCl2 3 mM, KH2PO4 10 mM, EGTA 0.5 mM, BSA 1 g/l, pH 7.1. […] Compounds dissolved in DMSO are titrated in a range of 10 μM to 10 mM final concentration. Subsequently, cell membranes are permeabilised with digitonin (1 mg/1*10^6 plt) to allow entry of extracellularly released energy substrate or cell impermeable energy substrates. After stabilized respiration, Succinate 10 mM is added as a reference to enable respiration downstream of complex I. After the respiration stabilized the experiment is terminated by addition of Antimycin at final concentration 1 μg/mL and any residual non-mitochondrial oxygen consumption is measured. An increase in respiration rate in the described protocol is tightly coupled to ATP synthesis by oxidative phosphorylation unless cells are uncoupled (i.e. proton leak without production of ATP). Uncoupling is tested for by addition of the ATP synthase inhibitor oligomycin (1-2 μg mL^−1) in a protocol 3 where the extent of uncoupling corresponds to the respiratory rate following oligomycin addition.

intact cells [2] = test: Screening assay (2): enhancement and inhibition of mitochondrial energy producing function in intact cells (FCCP uncoupled); format: cell-based, human; parameters: key to Convergent (FCCP): graded either +, ++ or +++ in increasing order of potency; graded either +, ++ or +++ in increasing order of potency; graded either +, ++ or +++ in increasing order of potency; (+): Brackets [( )] indicate an intermediate effect; (++): Brackets [( )] indicate an intermediate effect; (+++) is between ++ and +++; settings: for Convergent (FCCP): increase in mitochondrial oxygen consumption induced by the compound, screening assay 2 (uncoupled conditions); for Toxicity: lowest concentration during compound titration at which a decrease in oxygen consumption is seen, screening assay 2
Procedure: as §1
(2) Assay for Enhancement and Inhibition of Mitochondrial Energy Producing Function in Intact Cells
In the second protocol the same buffer is used as described above. After basal respiration is established, the mitochondrial uncoupler FCCP is added at a concentration of 2 nM to increase metabolic demand.

Intact human blood cells = test: Screening assay (4): enhancement of mitochondrial energy producing function in cells with inhibited respiratory complex I in human plasma; format: cell-based; parameters: key: graded either +, ++ or +++ in increasing order of potency; graded either +, ++ or +++ in increasing order of potency; graded either +, ++ or +++ in increasing order of potency; (+): Brackets [( )] indicate an intermediate effect; (++): Brackets [( )] indicate an intermediate effect; (+++) is between ++ and +++; settings: increase in mitochondrial oxygen consumption in cells with inhibited complex I incubated in human plasma
Procedure: Measurement of mitochondrial respiration is performed in a high-resolution oxygraph (Oxygraph-2k, Oroboros Instruments, Innsbruck, Austria) at a constant temperature of 37° C. […] Intact human blood cells are incubated in plasma from the same donor. […] The experiment is terminated by addition of Antimycin at final concentration 1 μg/mL and any residual non-mitochondrial oxygen consumption is measured.

intact cells [3] = test: Screening assay (3): assay to assess uncoupling in intact cells; format: cell-based, human; parameters: key: graded either +, ++ or +++ in increasing order of potency; graded either +, ++ or +++ in increasing order of potency; graded either +, ++ or +++ in increasing order of potency; (+): Brackets [( )] indicate an intermediate effect; (++): Brackets [( )] indicate an intermediate effect; (+++) is between ++ and +++; settings: for Convergent (Routine): increase in mitochondrial oxygen consumption induced by the compound; for Uncoupling: level of oxygen consumption after addition of oligomycin
Procedure: Measurement of mitochondrial respiration is performed in a high-resolution oxygraph (Oxygraph-2k, Oroboros Instruments, Innsbruck, Austria) at a constant temperature of 37° C. […] In the third protocol, the same buffer as described above is used. […] Subsequently, the ATP-synthase-inhibitor Oligomycin is added. A reduction in respiration is a measure of how much of the oxygen consumption that is coupled to ATP synthesis. No, or only a slight, reduction indicate that the compound is inducing a proton leak over the inner mitochondrial membrane. The uncoupler FCCP is then titrated to induce maximum uncoupled respiration. […] The experiment is terminated by the addition of 1 μg/mL of the complex III inhibitor Antimycin to measure non-mitochondrial oxygen consumption.

intact cells [4] = test: Assays exemplified in the patent (not specified further) for known succinate esters; format: cell-based
Text: I. Assays for Evaluating Enhancement and Inhibition of Mitochondrial Energy Producing Function in Intact Cells
Four Typical Evaluation Protocols in Intact Cells are Utilized.

intact human platelets [5] = test: Intervention on metformin- or rotenone-induced lactate production with cell-permeable succinate prodrugs; format: cell-based; settings: for effect on rotenone-induced lactate production: 2 μM rotenone, repeated additions of 250 μM; for effect on lactate production of metformin-incubated cells: 10 mM metformin, additions of 250 μM each 30 minutes
Procedure: Lactate production of intact human platelets was determined in PBS containing 10 mM glucose.
(§2) Lactate levels are determined every 2 h (or more frequent eg every 30 min) using the Lactate Pro™ 2 blood lactate test meter (Arkray, Alere AB, Lidingö, Sweden) or similar types of measurements. Incubation is performed at 37° C. pH is measured at start, after 4 and after 8 h (or more frequently) of incubation using a Standard pH Meter, e.g. PHM210 (Radiometer, Copenhagen, Denmark). Drug candidates are added to the assay from start or following 30-60 min at concentrations within the range 10 μM-5 mM. […] In order to evaluate the specificity of the drug candidate, it is also tested in combination with a down-stream inhibitor of respiration such as the complex III inhibitor Antimycin at 1 μg/mL, which should abolish the effect of the drug candidate and restore the production of lactate. The use of antimycin is therefore also a control for undue effects of drug candidates on the lactate producing ability of the cells used in the assay. (See e.g. FIGS. 9, 10 and 11).
Lactate levels were measured in intervals of 30 min with the onset of the experiment. Additionally, pH was measured prior to the first addition of vehicle (dmso, control), the different cell-permeable succinate prodrugs (NV118, NV189, NV241) or succinate and at the end of the experiment.

intact human platelets [6] = test system: intact human platelets
Procedure: Real-time respirometric measurements were performed using high-resolution oxygraphs (Oxygraph-2k, Oroboros Instruments, Innsbruck, Austria). The experimental conditions during the measurements were the following: 37° C., 2 mL active chamber volume and 750 rpm stirrer speed. […] For data recording, DatLab software version 4 and 5 were used (Oroboros Instruments, Innsbruck, Austria). Settings, daily calibration and instrumental background corrections were conducted according to the manufacturer's instructions. […] All measurements were performed at a platelet concentration of 200×10^6 cells per mL or a PBMC concentration of 5×10^6 cells per mL.
Venous blood from 18 healthy adults (11 males and 7 females) was drawn in K2EDTA tubes (BD Vacutainer® Brand Tube with dipotassium EDTA, BD, Plymouth, UK) according to clinical standard procedure after written informed consent was acquired. For platelet isolation the whole blood was centrifuged (Multifuge 1 S—R Heraeus, Thermo Fisher Scientifics, Waltham, USA) at 500 g at room temperature (RT) for 10 min. Platelet-rich plasma was collected to 15 mL falcon tubes and centrifuged at 4600 g at RT for 8 min. The resulting pellet was resuspended in 1-2 mL of the donor's own plasma. […] The blood remaining after isolation of platelets was washed with an equal volume of physiological saline and layered over 3 mL of Lymphoprep™. After centrifugation at 800 g at RT (room temperature) for 30 min the PBMC layer was collected and washed with physiological saline. Following a centrifugation at 250 g at RT for 10 min the pellet of PBMCs was resuspended in two parts of physiological saline and one part of the donor's own plasma. Cell count for both PBMCs and platelets were performed using an automated hemocytometer (Swelab Alfa, Boule Medical AB, Stockholm, Sweden).
Routine respiration was followed for 60 min at 37° C. before the ATP-synthase inhibitor oligomycin (1 μg mL^−1) was added to assess LEAK respiration. Maximal uncoupled respiratory electron transport system capacity supported by endogenous substrates (ETS) was reached by titration of FCCP.

[7] = test system: permeabilized human PBMCs; test: cells; settings: PBMC, read-out: IC50 for inhibition of OXPHOSCI
Procedure: Real-time respirometric measurements were performed using high-resolution oxygraphs (Oxygraph-2k, Oroboros Instruments, Innsbruck, Austria). The experimental conditions during the measurements were the following: 37° C., 2 mL active chamber volume and 750 rpm stirrer speed. […] For data recording, DatLab software version 4 and 5 were used (Oroboros Instruments, Innsbruck, Austria). Settings, daily calibration and instrumental background corrections were conducted according to the manufacturer's instructions. […] Standard non-linear curve fitting was applied to calculate half maximal inhibitory concentration (IC50) values. […] Maximal uncoupled respiratory electron transport system capacity supported by convergent input through complex I and […] ) was evaluated by subsequent titration with the protonophore carbonyl-cyanide p-(trifluoromethoxy) phenylhydrazone (FCCP). […] The complex III inhibitor antimycin (1 μg mL^-1) was then given to reveal residual oxygen consumption (ROX). […] Complex IV activity was calculated by subtracting the sodium azide value from the TMPD value. With exception of complex IV activity, all respiratory states were measured at steady-state and corrected for ROX. Complex IV activity was measured after ROX determination and not at steady-state.

intact PBMCs = test: Lactate release of intact PBMCs exposed to metformin; format: cell-based, human; settings: 10 mM metformin, data not shown
[8] = Al-Abri et al., 2013; cited from earlier work
[9] = test system: permeabilized human platelets; test: cells; settings: Platelet, read-out: IC50 for inhibition of OXPHOSCI
Procedure: (§3) Real-time respirometric measurements were performed using high-resolution oxygraphs (Oxygraph-2k, Oroboros Instruments, Innsbruck, Austria). The experimental conditions during the measurements were the following: 37° C., 2 mL active chamber volume and 750 rpm stirrer speed. […] For data recording, DatLab software version 4 and 5 were used (Oroboros Instruments, Innsbruck, Austria). Settings, daily calibration and instrumental background corrections were conducted according to the manufacturer's instructions. […] Lactate production of intact human platelets was determined in PBS containing 10 mM glucose. All measurements were performed at a platelet concentration of 200×10^6 cells per mL or a PBMC concentration of 5×10^6 cells per mL.
(§4) All respiratory, lactate and pH data are expressed as mean±SEM. Ratios are plotted as individuals and means. One-way ANOVA was used for one-factor comparison of three or more groups (concentration of drugs) and two-way mixed model ANOVA was used for two-factor comparison (time and concentration of drugs/treatment) of three or more groups. Post-hoc tests to compensate for multiple comparisons were done according to Holm-Sidak. Correlations were expressed as r^2 and P-values. […]
(§5) In order to investigate the specific target of biguanide toxicity, a protocol was applied using digitonin permeabilization of the blood cells and sequential additions of respiratory complex-specific substrates and inhibitors in MiR05 medium. […] Maximal uncoupled respiratory electron transport system capacity supported by convergent input through complex I and II (ETSCI+II) was evaluated by subsequent titration with the protonophore carbonyl-cyanide p-(trifluoromethoxy) phenylhydrazone (FCCP). […] Complex IV activity was calculated by subtracting the sodium azide value from the TMPD value. With exception of complex IV activity, all respiratory states were measured at steady-state and corrected for ROX. Complex IV activity was measured after ROX determination and not at steady-state.

[10] = test system: permeabilized human platelets
Procedure: as §3, §4, §5

[11] = patients; cited from earlier work
intact human platelets [12] = test: Effect of metformin and phenformin on lactate production and pH of intact human platelets; format: cell-based; settings: metformin 1 and 10 mM, phenformin 0.5 mM, rotenone 2 μM
Procedure: as §2
Incubation was performed at 37° C. at a stirrer speed of 750 rpm, and pH was measured at start, after 4 and after 8 h of incubation (n=4) using a PHM210 Standard pH Meter (Radiometer, Copenhagen, Denmark).

Compound	CII [1]	Convergent (FCCP) (intact cells [2])	Toxicity (intact cells [2])	CII (plasma) (Intact human blood cells)	Convergent (Routine) (intact cells [3])	Uncoupling (intact cells [3])	further results
CCC(=O)N[C@@H](CSC(=O)CCC(=O)O)C(=O)O [01-041, (R)-4-(2-carboxy-2-propionamidoethylthio)-4-oxobutanoic acid]	++	+++	5 mM	+	+	(+)	–
CC(=O)NCCSC(=O)CCC(=O)O [01-108, 4-(2-acetamidoethylthio)-4-oxobutanoic acid]	(++)	++	10 mM	(+)	++	+	–
CCC(=O)NCCSC(=O)CCC(=O)O [01-114, 4-oxo-4-(2-propionamidoethylthio)butanoic acid]	++	++	10 mM	+	+++	(+)	–
CCC(=O)N[C@@H](CSC(=O)CCC(=O)SC[C@H](NC(=O)CC)C(=O)N(CC)CC)C(=O)N(CC)CC [01-185, S,S-bis((R)-3-(diethylamino)-3-oxo-2-propionamidopropyl) butanebis(thioate)]	+	+	2 mM	+	(+)	(+)	–
CC(=O)NCC(C)(C)SC(=O)CCC(=O)O [01-188, 4-(1-acetamido-2-methylpropan-2-ylthio)-4-oxobutanoic acid]	+	+++	5 mM	+	+++	(+)	–
CCN(CC)C(=O)COCCSC(=O)CCC(=O)O [01-193, 4-(2-(2-(diethylamino)-2-oxoethoxy)ethylthio)-4-oxobutanoic acid]	+	+	5 mM	(+)	(++)	+	–
CCC(=O)N[C@@H](CSC(=O)CCC(=O)SC[C@H](NC(=O)CC)C(=O)OC)C(=O)OC [01-205, (R)-methyl 3-(4-((R)-3-methoxy-3-oxo-2-propionamidopropylthio)-4-oxobutanoylthio)-2-propionamidopropanoate]	++	++	5 mM	+	+++	(+)	–
CCOC(=O)CCC(=O)OCC [Diethyl succinate]	–	–	–	–	–	–	activity in the assays exemplified (intact cells [4]): inactive
CC(=O)OCOC(=O)CCC(=O)OCOC(C)=O [NV118]	–	–	–	–	–	–	effect on rotenone-induced lactate production (intact human platelets [5]): attenuated; effect on lactate production of metformin-incubated cells (intact human platelets [5]): significantly decreased
CC(=O)OC(C)OC(=O)CCC(=O)OC(C)OC(C)=O (stereo not drawn) [NV189]	–	–	–	–	–	–	effect on rotenone-induced lactate production (intact human platelets [5]): attenuated; also recorded: brought back to normal; effect on lactate production of metformin-incubated cells (intact human platelets [5]): significantly decreased
CC(=O)OCOC(=O)CCC(=O)OC(C)OC(C)=O (stereo not drawn) [NV241]	–	–	–	–	–	–	effect on rotenone-induced lactate production (intact human platelets [5]): attenuated; effect on lactate production of metformin-incubated cells (intact human platelets [5]): significantly decreased
COC(=O)CCC(=O)OC [dimethyl succinate]	–	–	–	–	–	–	activity in the assays exemplified (intact cells [4]): inactive
CN(C)C(=N)N=C(N)N [metformin]	–	–	–	–	–	–	LEAK respiration in intact cells (intact human platelets [6]; data not shown): not significantly changed; toxic concentration seen in the present study (intact human platelets [6]; human blood cells): 1 mM; reversibility of complex I inhibition upon removal of the drug (intact human platelets [6]; washing and permeabilizing the cells): did not seem to be reversible; IC50 [7]: 450 µM; lactate release of intact PBMCs (intact PBMCs): increased lactate release; serum level in a case report of involuntary intoxication, prior to hemodialysis [8]: over 2 mM
COC(=O)CCC(=O)O [monomethyl succinate]	–	–	–	–	–	–	activity in the assays exemplified (intact cells [4]): inactive
[H]/N=C(/N)N/C(=N/[H])NCCc1ccccc1 [phenformin]	–	–	–	–	–	–	IC50 [9]: 58 µM; effect on OXPHOSCI, OXPHOSCI+II and ETSCI+II [10]: inhibited; potency of inhibition of OXPHOSCI relative to metformin [10]: 20 fold; incidence of lactic acidosis [11]: 4 cases per 10000 treatment-years; lactate produced over 8 h of treatment compared to control (intact human platelets [12]): significantly more lactate
O=C(O)CCC(=O)O [succinate]	–	–	–	–	–	–	effect on lactate production of metformin-incubated cells (intact human platelets [5]): did not reduce; also recorded: did not change this
